The numbers were not newly measured in patent US20020058290A1, “Cell lines and cell-based assays for identification of androgen receptor modulators” (priority 2000, published 2002), which cites them from elsewhere.

The data set concerns MAP kinases Erk-1 and Erk-2. Particulars: AR-transfected PC3 cells; AR dependent, similar to DHT.

The structures appear in SMILES notation.

Consider `CC(O)(CS(=O)(=O)c1ccc(F)cc1)C(=O)Nc1ccc(C#N)c(C(F)(F)F)c1` (centres unmarked) [Casodex], for which the “activation of MAP kinases Erk-1 and Erk-2” value was “activate MAP kinases Erk-1 and Erk-2 in an AR dependent fashion”.

Consider `CC(C)(O)C(=O)Nc1ccc([N+](=O)[O-])c(C(F)(F)F)c1` [Hydroxyflutamide], for which the “activation of MAP kinases Erk-1 and Erk-2” value is “activate MAP kinases Erk-1 and Erk-2 in an AR dependent fashion”.
